Data on three compounds can be found in US20110237567A9, “TRICYCLIC SPIRO-OXINDOLE DERIVATIVES AND THEIR USES AS THERAPEUTIC AGENTS” (XENON PHARMACEUTICALS INC., priority 2006, published 2011).

pIC50: −log10 of the molar value.

One data set deals with sodium channel. Put plainly: Guanidine influx assay (in vitro). It is filed as cell-based, human or rat. Conditions: known cell line that expresses a sodium channel; read-out: IC50 Activity Level. An excerpt:
This example describes an in vitro assay for testing and profiling test agents against human or rat sodium channels stably expressed in cells of either an endogenous or recombinant origin. The assay is also useful for determining the IC-50 of a sodium channel blocking compound. The assay is based on the guanidine flux assay described by Reddy, N. L., et al., J Med Chem (1998), 41(17):3298-302.
The guanidine influx assay is a radiotracer flux assay used to determine ion flux activity of sodium channels in a high-throughput microplate-based format. The assay uses ^14C-guanidine hydrochloride in combination with various known sodium channel modulators, to assay the potency of test agents. Potency is determined by an IC-50 calculation. Selectivity is determined by comparing potency of the compound for the channel of interest to its potency against other sodium channels (also called ‘selectivity profiling’). […]
Cells expressing the channel of interest are grown according to the supplier or in the case of a recombinant cell in the presence of selective growth media such as G418 (Gibco/Invitrogen). The cells are disassociated from the culture dishes with an enzymatic solution (1×) Trypsin/EDTA (Gibco/Invitrogen) and analyzed for density and viability using haemocytometer (Neubauer). […]
IC-50 value of a test agent for a specific sodium channel may be determined using the above general method. […]

On to `O=C1N2CCCOc3cccc(c32)C12COc1cc3c(cc12)OCO3` (stereo not drawn) [Example 2], for which the pIC50 – broadly, −log10 of the IC50, conventionally taken in molar units – in the data set on sodium channel was 6.00 to 7.00. Consider `O=C1N2CCCCc3ccc(Br)c(c32)C12COc1cc3c(cc12)OCO3` (stereo not drawn) [Example 4], for which, in the data set with sodium channel, the pIC50 is 7.00 to 8.00.

With `O=C1N2CCCSc3cccc(c32)C12COc1cc3c(cc12)OCO3` (stereo not drawn) [Synthetic Example 1, 3′,4′-Dihydro-2′H-spiro[furo[2,3-f][1,3]benzodioxole-7,7′-[1,4]thiazepino[2,3,4-hi]indol]-6′-one], the melting point (commonly the temperature of the solid-liquid transition) lay within 216 to 217 °C.
